According to ChEMBL document CHEMBL4340557, “Fasudil dichloroacetate (FDCA), an orally available agent with potent therapeutic efficiency on monocrotaline-induced pulmonary arterial hypertension rats” (Bioorg Med Chem Lett, 2019):
Active and inactive are the calls of the source. The calls are words filed in the database; no cut-off is given here.

Tests used:
Rattus norvegicus [1] = assay: (§1) Anti-hypersensitive activity in MCT-induced pulmonary arterial hypertension Sprague-Dawley rat model assessed as mean pulmonary artery pressure at 37.5 mg/kg, po administered daily for 14 days starting from 14 days post-MCT challenge and measured post-last dose by pressure transducer-coupled polygraphy (reference value: 36 +/- 2.83 mmHg); type: functional
Rattus norvegicus [2] = assay: as §1, with “right ventricular systolic” for “mean pulmonary artery”, “59.06” for “36”, “3.26” for “2.83”; type: functional
Rattus norvegicus [3] = assay: as §1, with “dose in presence of DCA” for “dose”; type: functional
Rattus norvegicus [4] = assay: as §1, with “right ventricular systolic” for “mean pulmonary artery”, “dose in presence of DCA” for “dose”, “59.06” for “36”, “3.26” for “2.83”; type: functional
Rattus norvegicus [5] = assay: (§2) Anti-hypersensitive activity in MCT-induced pulmonary arterial hypertension Sprague-Dawley rat model assessed as pulmonary artery medial thickness at 37.5 mg/kg, po administered daily for 14 days starting from 14 days post-MCT challenge and measured post-last dose by hematoxylin and eosin staining-based microscopic analysis (reference value: […] +/- […]); type: functional
Rattus norvegicus [6] = assay: (§3) Anti-hypersensitive activity in MCT-induced pulmonary arterial hypertension Sprague-Dawley rat model assessed as lung fibrosis at 37.5 mg/kg, po administered daily for 14 days starting from 14 days post-MCT challenge and measured post-last dose by Masson's trichrome staining-based microscopic analysis (reference value: 6.12 +/- 1.66%); type: functional
[7] = Plasma concentration in Sprague-Dawley rat at 12.48 mg/kg, po measured at 0.25 hrs by LC-MS/MS analysis; type: ADME, organism-based
[8] = Plasma concentration in Sprague-Dawley rat at 12.48 mg/kg, po measured at 0.5 hrs by LC-MS/MS analysis; type: ADME, organism-based
[9] = Plasma concentration in Sprague-Dawley rat at 12.48 mg/kg, po measured at 1 hr by LC-MS/MS analysis; type: ADME, organism-based
[10] = Plasma concentration in Sprague-Dawley rat at 12.48 mg/kg, po measured at 2 hrs by LC-MS/MS analysis; type: ADME, organism-based
[11] = Plasma concentration in Sprague-Dawley rat at 12.48 mg/kg, po measured at 4 hrs by LC-MS/MS analysis; type: ADME, organism-based
[12] = Elimination rate constant in Sprague-Dawley rat at 12.48 mg/kg, po by LC-MS/MS analysis; type: ADME, organism-based; details: in vivo
[13] = Tmax in Sprague-Dawley rat at 12.48 mg/kg, po by LC-MS/MS analysis; type: ADME, organism-based; details: in vivo
[14] = Cmax in Sprague-Dawley rat at 12.48 mg/kg, po by LC-MS/MS analysis; type: ADME, organism-based; parameters: dose 12.48 mg/kg, route oral; details: in vivo
[15] = AUC (0 to t) in Sprague-Dawley rat at 12.48 mg/kg, po by LC-MS/MS analysis; type: ADME, organism-based; details: in vivo
[16] = AUC (0 to infinity) in Sprague-Dawley rat at 12.48 mg/kg, po by LC-MS/MS analysis; type: ADME, organism-based; parameters: dose 12.48 mg/kg, time infinity, route oral; details: in vivo
[17] = AUMC (0 to t) in Sprague-Dawley rat at 12.48 mg/kg, po by LC-MS/MS analysis; type: ADME, organism-based; details: in vivo
[18] = AUMC (0 to infinity) in Sprague-Dawley rat at 12.48 mg/kg, po by LC-MS/MS analysis; type: ADME, organism-based; details: in vivo
[19] = MRT in Sprague-Dawley rat at 12.48 mg/kg, po by LC-MS/MS analysis; type: ADME, organism-based; details: in vivo
Rattus norvegicus [20] = assay: Hemodynamic activity in Sprague-Dawley rat assessed as effect on mean systemic arterial pressure at 37.5 mg/kg, po administered daily for 2 weeks by pressure transducer-coupled polygraphy; type: ADME, organism-based; details: in vivo, 336 h
Rattus norvegicus [21] = assay: Hemodynamic activity in Sprague-Dawley rat assessed as effect on mean systemic arterial pressure at 37.5 mg/kg, po administered daily for 2 weeks in presence of DCA by pressure transducer-coupled polygraphy; type: ADME, organism-based; details: in vivo, 336 h
Rattus norvegicus [22] = assay: as §2, with “dose in presence of DCA” for “dose”; type: functional
Rattus norvegicus [23] = assay: as §3, with “dose in presence of DCA” for “dose”; type: functional
Rattus norvegicus [24] = assay: (§4) Anti-hypersensitive activity in MCT-induced pulmonary arterial hypertension Sprague-Dawley rat model assessed as reduction in cardiomyocyte hypertrophy by measuring cross-sectional area of cardiomyocyte at 37.5 mg/kg, po administered daily for 14 days starting from 14 days post-MCT challenge and measured post-last dose by hematoxylin and eosin staining-based microscopic analysis (reference value: 418 +/- 50.88 micrometer2); type: functional
Rattus norvegicus [25] = assay: as §3, with “reduction in cardiomyocyte hypertrophy by measuring cardiac” for “lung”, “11.74” for “6.12”, “3.24 %)” for “1.66%)”; type: functional; parameters: scale not given: the % may be the effect or the level left
Rattus norvegicus [26] = assay: as §4, with “dose in presence of DCA” for “dose”; type: functional
Rattus norvegicus [27] = assay: as §3, with “reduction in cardiomyocyte hypertrophy by measuring cardiac” for “lung”, “dose in presence of DCA” for “dose”, “11.74” for “6.12”, “3.24 %)” for “1.66%)”; type: functional; parameters: scale not given: the % may be the effect or the level left
Rattus norvegicus [28] = assay: Reversal of MCT-induced Sprague-Dawley rat model of elastic fiber hyperplasia at 43.3 mg/kg, po administered daily for 14 days starting from 14 days post-MCT challenge and measured post-last dose by elastic fibres staining-based microscopic analysis; type: functional, organism-based

For `Cl.O=S(=O)(c1cccc2cnccc12)N1CCCNCC1` [FASUDIL HYDROCHLORIDE], the Activity (Rattus norvegicus [1]) was 32.83 mmHg, the Activity (Rattus norvegicus [2]) was 59.9 mmHg and the Activity (Rattus norvegicus [3]) was 29.83 mmHg. The Activity (Rattus norvegicus [4]) was 51.13 mmHg, the Activity (Rattus norvegicus [5]) was 0.21 and the Activity (Rattus norvegicus [6]) was 6.41%. For the same compound, the concentration at 0.25 h [7] was 84.2 ng/mL, the concentration at 0.5 h [8] was 23.2 ng/mL and the concentration at 1 h [9] was 17.8 ng/mL. The concentration at 2 h [10] was 7.01 ng/mL, the concentration at 4 h [11] was 3.85 ng/mL and the k el [12] was 0.000253 s⁻¹. It also gave a Tmax [13] of 15 min, a Cmax [14] of 84.2 ng/mL and an AUC(0-t) [15] of 55.4 ng·h/mL. It also gave an AUC(0-inf) [16] of 59.8 ng·h/mL, an AUMCt [17] of 52.8 hr.hr.ng/ml and an AUMC [18] of 75.7 hr.hr.ng/ml. For the same compound, the MRT [19] was 72 min, the Activity (Rattus norvegicus [20]) was “Non-Toxic” and the Activity (Rattus norvegicus [21]) was “Non-Toxic”. For the same compound, the Activity (Rattus norvegicus [22]) was 0.2, the Activity (Rattus norvegicus [23]) was 6.71% and the Activity (Rattus norvegicus [24]) was 354.35 um2. For the same compound, the Activity (Rattus norvegicus [25]) was 3.97%, the Activity (Rattus norvegicus [26]) was 341.12 um2 and the Activity (Rattus norvegicus [27]) was 3.84%.
In the case of `O=S(=O)(c1cccc2cnccc12)N1CCCNCC1`, the Activity (Rattus norvegicus [28]) is reported as “Active”.
